In ChEMBL document CHEMBL1201862, “PubChem BioAssay data set” (2004):
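Cells were grown in 96-well plates and exposed to each compound for 48 hours at five concentrations; endpoints were interpolated linearly between bracketing concentrations, or set to the highest concentration if not reached. At the GI50, growth is halved.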 Calls of active or inactive are those of the source. No stated cut-off is given here; in the data, active = GI50 up to about 1.1 µM and inactive = higher.

Tests used:
Experiment in all cases: inhibition of tumour cell growth, NCI panel, 48 h
OVCAR-3 = system: OVCAR-3
M14 = system: M14
IGROV-1 = system: IGROV-1
UACC-257 = system: UACC-257
NCI-H460 = system: NCI-H460
HOP-62 = system: HOP-62
SR = system: SR
OVCAR-8 = system: OVCAR-8
HCT-116 = system: HCT-116
CAKI-1 = system: CAKI-1
HL-60 = system: HL-60
A498 = system: A498
SF-268 = system: SF-268
Malme-3M = system: Malme-3M
SK-MEL-2 = system: SK-MEL-2
SW-620 = system: SW-620
SF-539 = system: SF-539
SK-MEL-28 = system: SK-MEL-28
TK-10 = system: TK-10

Measured: GI50

CCOC(=O)C1=C(C)N(C2OC(COC(C)=O)C(OC(C)=O)C(OC(C)=O)C2OC(C)=O)C(=O)NC1c1ccccc1 (configuration not stated)
inactive: OVCAR-3 > 100 µM | M14 > 100 µM | IGROV-1 > 100 µM | UACC-257 > 100 µM | NCI-H460 > 100 µM | HOP-62 > 100 µM | SR > 100 µM | OVCAR-8 > 100 µM | HCT-116 > 100 µM | CAKI-1 83.9 µM | HL-60 > 100 µM | A498 > 100 µM | SF-268 > 100 µM | Malme-3M > 100 µM | SK-MEL-2 > 100 µM | SW-620 > 100 µM | SF-539 > 100 µM | SK-MEL-28 > 100 µM

CC(=O)c1ccc(Oc2ccc(/C(C)=N\N=C(N)N)cc2)cc1
inactive: OVCAR-3 1.99 µM | M14 1.5 µM | TK-10 3.28 µM | IGROV-1 5.62 µM | UACC-257 5.68 µM | NCI-H460 2.77 µM | HOP-62 2.26 µM | OVCAR-8 3.12 µM | HCT-116 3.24 µM | A498 1.77 µM | SF-268 3.59 µM | Malme-3M 1.97 µM | SK-MEL-2 1.73 µM | SF-539 1.72 µM | SK-MEL-28 4.68 µM

COc1cc2cc[n+]3c(C)c4cc(OC)c(OC)cc4c([O-])c3c2cc1OC
inactive: OVCAR-3 3.44 µM | M14 > 100 µM | TK-10 > 100 µM | IGROV-1 25.7 µM | UACC-257 30.8 µM | NCI-H460 > 100 µM | HOP-62 > 100 µM | SR 61 µM | OVCAR-8 > 100 µM | HCT-116 89.7 µM | CAKI-1 > 100 µM | HL-60 16.9 µM | A498 > 100 µM | SF-268 36.3 µM | Malme-3M 26.9 µM | SK-MEL-2 56.9 µM | SW-620 41.9 µM | SF-539 36.9 µM | SK-MEL-28 64.3 µM

CCCCCCCCCCCCCCCc1ccc(OCC(O)CO)cc1 (configuration not stated)
inactive: OVCAR-3 23 µM | M14 17.9 µM | TK-10 > 100 µM | IGROV-1 31.3 µM | UACC-257 38.8 µM | NCI-H460 24.3 µM | HOP-62 47.1 µM | SR > 100 µM | OVCAR-8 25.7 µM | HCT-116 17.1 µM | CAKI-1 31.6 µM | HL-60 27.7 µM | A498 89.5 µM | SF-268 27.9 µM | Malme-3M 22.4 µM | SK-MEL-2 18.9 µM | SW-620 22.3 µM | SF-539 49.7 µM | SK-MEL-28 25.6 µM

COc1ccc(/C=N/n2cnc3c(c2=O)SC(=C(C#N)C#N)N3c2ccccc2)cc1
inactive: OVCAR-3 > 100 µM | TK-10 > 100 µM | IGROV-1 > 100 µM | UACC-257 > 100 µM | NCI-H460 > 100 µM | HOP-62 86.5 µM | SR > 100 µM | OVCAR-8 > 100 µM | HCT-116 > 100 µM | HL-60 > 100 µM | SF-268 41.1 µM | SW-620 > 100 µM | SF-539 36.2 µM | SK-MEL-28 90.8 µM

O=C1C(Cl)N(c2ccc(Cl)cc2)C1c1c[nH]c2ccccc12 (configuration not stated)
inactive: OVCAR-3 17.6 µM | M14 18.2 µM | TK-10 19.8 µM | IGROV-1 16.7 µM | UACC-257 16.8 µM | NCI-H460 15 µM | HOP-62 17.7 µM | SR 9.18 µM | OVCAR-8 31.3 µM | HCT-116 13.8 µM | HL-60 15.8 µM | SF-268 26.2 µM | Malme-3M 12.5 µM | SK-MEL-2 14.5 µM | SW-620 26 µM | SF-539 18.2 µM | SK-MEL-28 24.8 µM
